Source: patent US20250163104A1, “MACROCYCLIC IMMUNOMODULATORS” (priority 2021, published 2025)
Where a SMILES comes first, the peptide text is derived from it. Bridges are numbered along the chain shown (N, C = ends). [ ]: non-standard residue; d: D form. The star is where a group is joined. Phe(2-CF3) = N[C@@H](Cc1ccccc1C(F)(F)F)C(=O)O; Bip = N[C@@H](Cc1ccc(-c2ccccc2)cc1)C(=O)O; Phe(3-Cl) = N[C@@H](Cc1cccc(Cl)c1)C(=O)O; Phe(2-CN) = N#Cc1ccccc1C[C@H](N)C(=O)O; Phe(2-F) = N[C@@H](Cc1ccccc1F)C(=O)O; 4Pal = N[C@@H](Cc1ccncc1)C(=O)O; Cha = N[C@@H](CC1CCCCC1)C(=O)O; Carboxymethyl = O=C(O)C*; Orn = NCCC[C@H](N)C(=O)O; Dab = NCC[C@H](N)C(=O)O; Dap = NC[C@H](N)C(=O)O

Each compound was assayed against T1, human PD-1 / PD-L1-Ig binding on Jurkat cell line over-expressing human PD-1 (Jurkat-PD-1) (Homo sapiens, UniProt Q15116) (assay: Jurkat-PD-1 Cell Binding High-Content Screening Assay (CBA)). Conditions: Jurkat-PD-1 cells, PE-labeled PD-L1-Ig 20 nM final; read-out: Jurkat HPD1_PDL1 IC50.
T1 construct: expressed in transfected cells; host or cells: Jurkat
T1 sequence (Q15116 25-288): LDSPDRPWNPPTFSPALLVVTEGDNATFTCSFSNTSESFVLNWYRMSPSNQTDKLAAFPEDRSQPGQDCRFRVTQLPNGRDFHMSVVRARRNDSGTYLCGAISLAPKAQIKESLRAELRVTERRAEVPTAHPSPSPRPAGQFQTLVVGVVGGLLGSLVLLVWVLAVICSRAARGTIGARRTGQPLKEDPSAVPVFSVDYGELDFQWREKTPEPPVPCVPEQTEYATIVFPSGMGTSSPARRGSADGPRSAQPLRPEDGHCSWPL
Assay type: cell-based
Procedure, shortened: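 Compounds were preincubated with Jurkat-hPD-1 cells in DMEM plus 10% fetal calf serum for 2 h at 37° C. Phycoerythrin-labeled PD-L1-Ig (20 nM final) was then added for 1 hour. Cells were fixed in 4% paraformaldehyde with Hoechst 33342, and bound fluorescence was quantified by high-content imaging.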
`CC(C)C[C@H]1NC(=O)[C@H](CCCN)NC(=O)[C@H](CCC(=O)O)NC(=O)[C@H](Cc2ccc(-c3ccccc3)cc2)NC(=O)[C@H](C(C)C)NC(=O)[C@H](Cc2c[nH]c3ccccc23)NC(=O)[C@H](CC(=O)O)NC(=O)[C@H](Cc2ccc(OCC(=O)O)cc2)NC(=O)[C@H](CN)NC(=O)CSC[C@@H](C(=O)N[C@@H](C)C(N)=O)NC(=O)[C@H]([C@@H](C)O)NC(=O)[C@H](C(C)C)NC(=O)[C@H](Cc2ccccc2F)NC(=O)[C@H](CCN)NC1=O` [Compound 1485] ({CH2CO}-[Dap]Y(Carboxymethyl)DWV[Bip]E[Orn][dL][Dab][Phe(2-F)]VTCA-NH2; thioether N-14) was tested, and the IC50 was 15.5 nM. In the case of `CC(C)C[C@H]1NC(=O)[C@H](CCCN)NC(=O)[C@H](CCC(=O)O)NC(=O)[C@H](Cc2ccc(-c3ccccc3)cc2)NC(=O)[C@H](C(C)C)NC(=O)[C@H](Cc2c[nH]c3ccccc23)NC(=O)[C@H](CC(=O)O)NC(=O)[C@H](Cc2ccc(OCC(=O)O)cc2)NC(=O)[C@H](CN)NC(=O)CSC[C@@H](C(=O)N[C@@H](C)C(N)=O)NC(=O)[C@H]([C@@H](C)O)NC(=O)[C@H](C(C)C)NC(=O)[C@H](Cc2ccccc2C(F)(F)F)NC(=O)[C@H](CCN)NC1=O` [Compound 1486] ({CH2CO}-[Dap]Y(Carboxymethyl)DWV[Bip]E[Orn][dL][Dab][Phe(2-CF3)]VTCA-NH2; thioether N-14), the IC50 is reported as 43.7 nM. `CC(C)C[C@H]1NC(=O)[C@H](CCCN)NC(=O)[C@H](CCC(=O)O)NC(=O)[C@H](Cc2ccc(-c3ccccc3)cc2)NC(=O)[C@H](C(C)C)NC(=O)[C@H](Cc2c[nH]c3ccccc23)NC(=O)[C@H](CC(=O)O)NC(=O)[C@H](Cc2ccc(OCC(=O)O)cc2)NC(=O)[C@H](CN)NC(=O)CSC[C@@H](C(=O)N[C@@H](C)C(N)=O)NC(=O)[C@H]([C@@H](C)O)NC(=O)[C@H](C(C)C)NC(=O)[C@H](Cc2ccccc2C#N)NC(=O)[C@H](CCN)NC1=O` [Compound 1487] ({CH2CO}-[Dap]Y(Carboxymethyl)DWV[Bip]E[Orn][dL][Dab][Phe(2-CN)]VTCA-NH2; thioether N-14) gave an IC50 of 268 nM. With `CC(C)C[C@H]1NC(=O)[C@H](CCCN)NC(=O)[C@H](CCC(=O)O)NC(=O)[C@H](Cc2ccc(-c3ccccc3)cc2)NC(=O)[C@H](C(C)C)NC(=O)[C@H](Cc2cccc(Cl)c2)NC(=O)[C@H](CC(=O)O)NC(=O)[C@H](Cc2ccc(OCC(=O)O)cc2)NC(=O)[C@H](Cc2ccccc2)NC(=O)CSC[C@@H](C(=O)N[C@@H](C)C(N)=O)NC(=O)[C@H]([C@@H](C)O)NC(=O)[C@H](C(C)C)NC(=O)[C@H](CC2CCCCC2)NC(=O)[C@H](CCN)NC1=O` [Compound 1488] ({CH2CO}-FY(Carboxymethyl)D[Phe(3-Cl)]V[Bip]E[Orn][dL][Dab][Cha]VTCA-NH2; thioether N-14) the IC50 was 10.6 nM. `CC(C)C[C@H]1NC(=O)[C@H](CCCN)NC(=O)[C@H](CCC(=O)O)NC(=O)[C@H](Cc2ccc(-c3ccccc3)cc2)NC(=O)[C@H](C(C)C)NC(=O)[C@H](Cc2cccc(Cl)c2)NC(=O)[C@H](CC(=O)O)NC(=O)[C@H](Cc2ccc(O)cc2)NC(=O)[C@H](Cc2ccncc2)NC(=O)CSC[C@@H](C(=O)N[C@@H](C)C(N)=O)NC(=O)[C@H]([C@@H](C)O)NC(=O)[C@H](C(C)C)NC(=O)[C@H](CC2CCCCC2)NC(=O)[C@H](CCN)NC1=O` [Compound 1489] gave an IC50 of 13.6 nM. Compound `CC(C)C[C@H]1NC(=O)[C@H](CCCN)NC(=O)[C@H](CCC(=O)O)NC(=O)[C@H](Cc2ccc(-c3ccccc3)cc2)NC(=O)[C@H](C(C)C)NC(=O)[C@H](Cc2cccc(Cl)c2)NC(=O)[C@H](CC(=O)O)NC(=O)[C@H](Cc2ccc(OCC(=O)O)cc2)NC(=O)[C@H](Cc2ccc(OCC(=O)O)cc2)NC(=O)CSC[C@@H](C(=O)N[C@@H](C)C(N)=O)NC(=O)[C@H]([C@@H](C)O)NC(=O)[C@H](C(C)C)NC(=O)[C@H](CC2CCCCC2)NC(=O)[C@H](CCN)NC1=O` [Compound 1490] has an IC50 of 20.2 nM. `CC(C)C[C@H]1NC(=O)[C@H](CCCN)NC(=O)[C@H](CCC(=O)O)NC(=O)[C@H](Cc2ccc(-c3ccccc3)cc2)NC(=O)[C@H](C(C)C)NC(=O)[C@H](Cc2cccc(Cl)c2)NC(=O)[C@H](CC(=O)O)NC(=O)[C@H](Cc2ccc(OCC(=O)O)cc2)NC(=O)[C@H](Cc2ccncc2)NC(=O)CSC[C@@H](C(=O)N[C@@H](C)C(N)=O)NC(=O)[C@H]([C@@H](C)O)NC(=O)[C@H](C(C)C)NC(=O)[C@H](CC2CCCCC2)NC(=O)[C@H](CCN)NC1=O` [Compound 1491] showed an IC50 of 22.6 nM. `CC(C)C[C@H]1NC(=O)[C@H](CCCN)NC(=O)[C@H](CCC(=O)O)NC(=O)[C@H](Cc2ccc(-c3ccccc3)cc2)NC(=O)[C@H](C(C)C)NC(=O)[C@H](Cc2cccc(Cl)c2)NC(=O)[C@H](CC(=O)O)NC(=O)[C@H](Cc2ccc(C(=O)O)cc2)NC(=O)[C@H](Cc2ccc(OCC(=O)O)cc2)NC(=O)CSC[C@@H](C(=O)N[C@@H](C)C(N)=O)NC(=O)[C@H]([C@@H](C)O)NC(=O)[C@H](C(C)C)NC(=O)[C@H](CC2CCCCC2)NC(=O)[C@H](CCN)NC1=O` [Compound 1492] gave an IC50 of 27.4 nM. `CC(C)C[C@H]1NC(=O)[C@H](CCCN)NC(=O)[C@H](CCC(=O)O)NC(=O)[C@H](Cc2ccc(-c3ccccc3)cc2)NC(=O)[C@H](C(C)C)NC(=O)[C@H](Cc2cccc(Cl)c2)NC(=O)[C@H](CC(=O)O)NC(=O)[C@H](Cc2ccncc2)NC(=O)[C@H](Cc2ccc(OCC(=O)O)cc2)NC(=O)CSC[C@@H](C(=O)N[C@@H](C)C(N)=O)NC(=O)[C@H]([C@@H](C)O)NC(=O)[C@H](C(C)C)NC(=O)[C@H](CC2CCCCC2)NC(=O)[C@H](CCN)NC1=O` [Compound 1493] ({CH2CO}-Y(Carboxymethyl)[4Pal]D[Phe(3-Cl)]V[Bip]E[Orn][dL][Dab][Cha]VTCA-NH2; thioether N-14) gave an IC50 of 10.8 nM. In the case of `CC(C)C[C@H]1NC(=O)[C@H](CCCN)NC(=O)[C@H](CCC(=O)O)NC(=O)[C@H](Cc2ccc(-c3ccccc3)cc2)NC(=O)[C@H](C(C)C)NC(=O)[C@H](Cc2cccc(Cl)c2)NC(=O)[C@H](CC(=O)O)NC(=O)[C@H](Cc2ccc(O)cc2)NC(=O)[C@H](CC(N)=O)NC(=O)CSC[C@@H](C(=O)N[C@@H](C)C(N)=O)NC(=O)[C@H]([C@@H](C)O)NC(=O)[C@H](C(C)C)NC(=O)[C@H](CC2CCCCC2)NC(=O)[C@H](CCN)NC1=O` [Compound 1494] ({CH2CO}-NYD[Phe(3-Cl)]V[Bip]E[Orn][dL][Dab][Cha]VTCA-NH2; thioether N-14), the IC50 is reported as 13.8 nM. With `CC(C)C[C@H]1NC(=O)[C@H](CCCN)NC(=O)[C@H](CCC(=O)O)NC(=O)[C@H](Cc2ccc(-c3ccccc3)cc2)NC(=O)[C@H](C(C)C)NC(=O)[C@H](Cc2cccc(Cl)c2)NC(=O)[C@H](CC(=O)O)NC(=O)[C@H](Cc2ccc(OCC(=O)O)cc2)NC(=O)[C@H](CN)NC(=O)CSC[C@@H](C(=O)N[C@@H](C)C(N)=O)NC(=O)[C@H]([C@@H](C)O)NC(=O)[C@H](C(C)C)NC(=O)[C@H](CC2CCCCC2)NC(=O)[C@H](CCN)NC1=O` [Compound 1495] the IC50 was 5.8 nM. `CC(C)C[C@H]1NC(=O)[C@H](CCCN)NC(=O)[C@H](CCC(=O)O)NC(=O)[C@H](Cc2ccc(-c3ccccc3)cc2)NC(=O)[C@H](C(C)C)NC(=O)[C@H](Cc2cccc(Cl)c2)NC(=O)[C@H](CC(=O)O)NC(=O)[C@H](Cc2ccncc2)NC(=O)[C@H](CN)NC(=O)CSC[C@@H](C(=O)N[C@@H](C)C(N)=O)NC(=O)[C@H]([C@@H](C)O)NC(=O)[C@H](C(C)C)NC(=O)[C@H](CC2CCCCC2)NC(=O)[C@H](CCN)NC1=O` [Compound 1496] ({CH2CO}-[Dap][4Pal]D[Phe(3-Cl)]V[Bip]E[Orn][dL][Dab][Cha]VTCA-NH2; thioether N-14) showed an IC50 of 17.9 nM.
